Source: patent US4782058A, “1,3,4,6,7,11b-Hexahydro-6-phenyl-2H-pyrazino-(2,1-a)isoquinolines, for anti-histamine or anti-depression treatment” (Pennwalt Corporation, priority 1987, dated 1988)
Counter-ions that a name gives are not always drawn.

Assays:
[1] = test system: tetrabenazine-induced ptosis; assay: inhibition of tetrabenazine-induced ptosis in mice; type: in vivo; settings: Mus musculus, po; male CF-1 mice, orally administered 15 min before i.v. tetrabenazine; ptosis rated 30-150 min; read-out: lowest active dose (LAD)
Experimental: A particularly useful compound with respect to antidepressant activity is the title compound of Example 1 (i.e., the cis-diastereoisomeric form of the compound of formula I in which R1 is methyl, R2 is methoxy, and R3 is hydrogen). That compound was tested for antidepressant activity by measuring its ability to inhibit tetrabenazine-induced ptosis in mice.
Male CF-1 mice weighing 19-32 grams were housed for a minimum of 5 days under a 12 hour light/dark (6 am/6 pm) schedule at 70°-74° F. and relative humidity of 30-50%. Food and water were available ad libitum until the time of administration of test compounds. Mice in groups of ten were orally administered (via gastric intubation) either the control solution (distilled water, 10 ml/kg) or the test compound. The test compound was either dissolved in distilled water or suspended in distilled water containing a drop of polyoxyethylene 20 sorbitan monooleate, sold under the trademark, Tween 80. After fifteen minutes, a dose of 10 ml/kg of a solution of tetrabenazine (as its methane sulfonate salt) in distilled water (4 mg/ml) was administered by intravenous injection. The degree of palpebral closure (ptosis) was determined 30, 60, 90, 120, and 150 minutes after administration of the tetrabenazine solution. […]

histamine H1 -receptors = molecular target: T1, histamine H1 -receptors (Rattus norvegicus, UniProt P31390); assay: inhibition of binding of 3H-pyrilamine to homogenated rat cerebral tissue; settings: 3H-pyrilamine binding, read-out: IC50 (50% inhibitory concentration)
T1 construct: homogenated rat cerebral tissue; from tissue; host or cells: rat cerebral tissue, homogenate
Experimental: That compound was assayed for anti-histamine activity by measuring its ability to inhibit the binding of 3H-pyrilamine to homogenated rat cerebral tissue. (3H-Pyrilamine is a radioligand that is used to characterize histamine H1 -receptors in brain tissue.) Assay conditions were essentially those of V. T. Tran et al, Proc. Nat'l. Acad. Sci. (USA) 75, p. 6290-6294 (1978).

T1 sequence (P31390 whole entry): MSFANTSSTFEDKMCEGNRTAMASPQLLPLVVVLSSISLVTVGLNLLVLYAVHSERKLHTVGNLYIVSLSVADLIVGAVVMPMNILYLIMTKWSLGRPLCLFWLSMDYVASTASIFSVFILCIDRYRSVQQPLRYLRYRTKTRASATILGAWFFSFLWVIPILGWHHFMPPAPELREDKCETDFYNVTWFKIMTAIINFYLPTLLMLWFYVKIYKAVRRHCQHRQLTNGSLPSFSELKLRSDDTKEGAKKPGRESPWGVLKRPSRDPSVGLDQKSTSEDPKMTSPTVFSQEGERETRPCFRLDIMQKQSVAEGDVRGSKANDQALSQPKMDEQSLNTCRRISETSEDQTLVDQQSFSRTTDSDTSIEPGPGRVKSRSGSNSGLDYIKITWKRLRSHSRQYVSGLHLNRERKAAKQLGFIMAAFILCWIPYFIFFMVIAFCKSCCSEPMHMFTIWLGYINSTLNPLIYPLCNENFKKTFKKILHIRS

IC50 (histamine H1 -receptors) [nM]	SMILES	minimal effective dose [1] [mg/kg]
–	COc1ccc2c(c1)C[C@@H](c1ccccc1)N1CCN(C)C[C@@H]21 (relative stereo) [Example 1, cis-1,3,4,6,7,11b-hexahydro-9-methoxy-2-methyl-6-phenyl-2H-pyrazino[2,1-a]isoquinoline dihyrochloride]	20
250	CN1CCN2[C@@H](c3ccccc3)Cc3cc(O)ccc3[C@@H]2C1 (relative stereo) [Example 2, cis-1,3,4,6,7,11b-hexahydro-9-hydroxy-2-methyl-6-phenyl-2H-pyrazino[2,1-a]isoquinoline dihydrobromide]	–
